The subject of one test is bacteria. The conditions noted are these: described in the literature; cited from earlier work.
The subject of test [1] is Haemophilus influenzae Spain 7. Put plainly: Determination of the minimum inhibitory concentration (MIC), liquid dilution test. The class given is cell-based. The conditions noted are these: BHI broth plus 20% bovine serum, 10 μg/ml hemin and 1% Isovitale, 37° C., 18-24 hours, 8-10% CO2. How it is done:
(§1) Determination of the Minimum Inhibitory Concentration (MIC):
(§2) The MIC is determined in a liquid dilution test. Overnight cultures of the test organisms are diluted to a cell count of 10^5 organisms per ml in Isosensitest medium (Difco, Irvine, USA) and are incubated with dilutions of the test substances (1:2 dilution stages). Exceptions are the tests with S. pneumoniae G9A, which are conducted in BHI broth (Difco) plus 20% bovine serum, and with H. influenzae, which are conducted in BHI broth (Difco) plus 20% bovine serum, 10 μg/ml hemin and 1% Isovitale (Becton Dickinson, N.J., USA).
(§3) The cultures are incubated at 37° C. for 18-24 hours; S. pneumoniae and H. influenzae in the presence of 8-10% CO2.
(§4) The lowest concentration of each substance at which there is no longer any visible bacterial growth is defined as the MIC. The MICs in μmol/1 of some compounds of the invention against a series of test organisms are listed by way of example in the table below.

Test [2] relates to Staphylococcus aureus 133. The test is described as above. Conditions: Isosensitest medium, 10^5 organisms per ml, 37° C., 18-24 hours; lowest concentration with no visible bacterial growth. The format is cell-based. How it is done:
as §1, §2, §3, §4

Structures are written as SMILES.

With `C/C=C/C=C/C(=O)N[C@@H](CC(=O)N[C@H](C(=O)[C@@H]1C(=O)NC(=O)[C@H]1C)C(C)C)c1ccccc1` [moiramide B], the antibacterial activity entry in the test with bacteria is recorded as “having antibacterial activity”. `C[C@@H]1C(=O)NC(=O)[C@H]1C(=O)[C@@H](NC(=O)C[C@H](NC(=O)/C=C/c1ccc2c(c1)OCO2)c1ccccc1)C1CCCC1` [Example 31, (2E)-3-(2H-Benzo[d]1,3-dioxolan-5-yl)-N-((1S)-2-{N-[(1S)-2-((4S,3R)-4-methyl-2,5-dioxoazolin-3-yl)-1-cyclopentyl-2-oxoethyl]carbamoyl}-1-phenylethyl)prop-2-enamide]: in test [1], the “MIC Haemophilus influenzae Spain 7” value stood at 31.3 μmol/1. Also, the “MIC Staphylococcus aureus 133” value in test [2] was <1 μmol/1.

Take `CC(C)[C@H](NC(=O)CC(NC(=O)/C=C/c1ccc2c(c1)OCO2)c1ccc2ccccc2c1)C(=O)[C@@H]1C(=O)NC(=O)[C@H]1C` (some centres unmarked) [Example 92]: the “MIC Haemophilus influenzae Spain 7” value in test [1] came to 15.6 μmol/1. Also, the “MIC Staphylococcus aureus 133” value in test [2] is on record as <1 μmol/1.

Take `C/C=C/C=C/C=C/C(=O)N[C@@H](CC(=O)N[C@H](C(=O)[C@@H]1C(=O)NC(=O)[C@H]1C)C(C)C)c1ccccc1` [andrimid]: the antibacterial activity entry in the test with bacteria was “having antibacterial activity”.

Turning to `CC(C)[C@H](NC(=O)C[C@H](NC(=O)/C=C/c1ccc2c(c1)OCO2)c1ccccc1)C(=O)[C@@H]1C(=O)NC(=O)[C@H]1C` [Example 1, (2E)-3-(1,3-Benzodioxol-5-yl)-N-{(1S)-3-[((1S)-2-methyl-1-{[(3R,4S)-4-methyl-2,5-dioxo-3-pyrrolidinyl]carbonyl}propyl)amino]-3-oxo-1-phenylpropyl}-2-propenamide], the “MIC Haemophilus influenzae Spain 7” value in test [1] stood at 31.3 μmol/1. Moreover, the “MIC Staphylococcus aureus 133” value in test [2] is given as 3.9 μmol/1.

In the case of `C/C=C/C=C/C=C/C(=O)N[C@@H](CC(=O)N[C@H](C(=O)[C@@]1(O)C(=O)NC(=O)[C@H]1C)C(C)C)c1ccccc1` [moiramide C], the antibacterial activity entry in the test with bacteria was “inactive”. For the compound `CC(C)[C@H](NC(=O)CC(NC(=O)/C=C/c1ccc2c(c1)OCO2)c1ccc2c(c1)OCCO2)C(=O)[C@@H]1C(=O)NC(=O)[C@H]1C` (stereo partly drawn) [Example 5, (2E)-3-(1,3-Benzodioxol-5-yl)-N-{1-(2,3-dihydro-1,4-benzodioxin-6-yl)-3-[((1S)-2-methyl-1-{[(3R,4S)-4-methyl-2,5-dioxo-3-pyrrolidinyl]carbonyl}propyl)amino]-3-oxopropyl}-2-propenamide], the “MIC Haemophilus influenzae Spain 7” value in test [1] stood at 3.9 μmol/1. Besides, the “MIC Staphylococcus aureus 133” value in test [2] was determined as 7.8 μmol/1. Consider `C[C@@H]1C(=O)NC(=O)[C@H]1C(=O)[C@@H](NC(=O)C[C@H](NC(=O)/C=C/c1ccc2c(c1)OCO2)c1ccccc1)C(C)(C)C` [Example 2, (2E)-3-(1,3-Benzodioxol-5-yl)-N-{(1S)-3-[((1S)-2,2-dimethyl-1-{[(3R,4S)-4-methyl-2,5-dioxo-3-pyrrolidinyl]carbonyl}propyl)amino]-3-oxo-1-phenylpropyl}-2-propenamide], for which the “MIC Haemophilus influenzae Spain 7” value in test [1] was found to be 31.3 μmol/1. Further, the “MIC Staphylococcus aureus 133” value in test [2] was 7.8 μmol/1.

`C[C@@H]1C(=O)N(N)C(=O)[C@H]1C(=O)[C@@H](NC(=O)C[C@H](NC(=O)/C=C/c1ccc(C#N)cc1)c1ccccc1)C1CCCC1` [Example 34, (2E)-N-((1S)-2-{N-[(1S)-2-((4S,3R)-1-amino-4-methyl-2,5-dioxoazolidin-3-yl)-1-cyclopentyl-2-oxoethyl]carbamoyl}-1-phenylethyl)-3-(4-cyanophenyl)prop-2-enamide]: the “MIC Haemophilus influenzae Spain 7” value in test [1] is 7.8 μmol/1. Moreover, the “MIC Staphylococcus aureus 133” value in test [2] is recorded as <1 μmol/1. With `CC(C)[C@H](NC(=O)C[C@H](NC(=O)/C=C/c1ccsc1)c1ccccc1)C(=O)[C@@H]1C(=O)NC(=O)[C@H]1C` [Example 11], the “MIC Haemophilus influenzae Spain 7” value in test [1] stood at 62.5 μmol/1. Moreover, the “MIC Staphylococcus aureus 133” value in test [2] is 7.8 μmol/1.

The record behind these values is patent US7402683B2, “Cinnamic acid amides” (Bayer HealthCare AG, priority 2002, dated 2008).
